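Results reflect a 48-hour exposure of cells in 96-well plates to compound at five concentrations. Abbreviation: GI50, concentration required for 50% inhibition of growth.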 Active and inactive are the calls of the source. Cut-off read from the data, not from the text of the source: active = GI50 up to about 1.1 µM and inactive = higher.
Columns and labels:
Assay in all cases: DTP human tumour cell line panel, 48 h
UO-31 = tested on: UO-31
HOP-92 = tested on: HOP-92
SN12C = tested on: SN12C
OVCAR-4 = tested on: OVCAR-4
SK-MEL-2 = tested on: SK-MEL-2
OVCAR-8 = tested on: OVCAR-8
MDA-MB-231 = tested on: MDA-MB-231
HCT-116 = tested on: HCT-116
SK-MEL-5 = tested on: SK-MEL-5
T47D = tested on: T47D
PC-3 = tested on: PC-3
SF-268 = tested on: SF-268
SR = tested on: SR
NCI-H460 = tested on: NCI-H460
EKVX = tested on: EKVX
A549 = tested on: A549
NCI-H23 = tested on: NCI-H23
BT-549 = tested on: BT-549
Malme-3M = tested on: Malme-3M
NCI-H522 = tested on: NCI-H522

Measured: GI50

O=C1C=Cc2c(Cl)sc(Cl)c21
inactive: UO-31 1.6 µM | HOP-92 1.5 µM | SN12C 2.18 µM | OVCAR-4 6.01 µM | SK-MEL-2 2.2 µM | OVCAR-8 1.6 µM | MDA-MB-231 2.86 µM | SK-MEL-5 2.11 µM | T47D 1.81 µM | PC-3 1.88 µM | SF-268 1.66 µM | NCI-H460 9.31 µM | EKVX 3.27 µM | A549 4.24 µM | NCI-H23 2.22 µM | BT-549 3.08 µM
active: HCT-116 0.752 µM | SR 0.347 µM

O=c1c2ccccc2nc2[nH][nH]c(=S)n12
inactive: UO-31 > 100 µM | HOP-92 > 100 µM | SN12C > 100 µM | SK-MEL-2 > 100 µM | OVCAR-8 > 100 µM | MDA-MB-231 > 100 µM | HCT-116 > 100 µM | SK-MEL-5 > 100 µM | T47D > 100 µM | PC-3 > 100 µM | SF-268 > 100 µM | SR > 100 µM | NCI-H460 > 100 µM | EKVX 83.6 µM | A549 > 100 µM | NCI-H23 > 100 µM | BT-549 > 100 µM

COC(=O)/C=C/[C@H]1[C@H](C)N1S(=O)(=O)c1ccc(C)cc1 (some centres undefined)
inactive: SN12C > 100 µM | OVCAR-4 56.8 µM | SK-MEL-2 68.7 µM | OVCAR-8 > 100 µM | Malme-3M 50.2 µM | MDA-MB-231 > 100 µM | HCT-116 41.8 µM | SK-MEL-5 > 100 µM | T47D > 100 µM | PC-3 > 100 µM | SF-268 > 100 µM | SR 31.6 µM | NCI-H460 > 100 µM | EKVX > 100 µM | A549 > 100 µM | NCI-H522 48.6 µM | NCI-H23 74.3 µM | BT-549 > 100 µM

COc1ccc2c(c1)CC1=C(O2)c2ccc(OC)cc2OC1
inactive: UO-31 61.2 µM | SN12C 20.5 µM | OVCAR-4 22.5 µM | SK-MEL-2 31.3 µM | OVCAR-8 29.9 µM | Malme-3M 22.5 µM | MDA-MB-231 39.6 µM | HCT-116 18.3 µM | SK-MEL-5 18.2 µM | T47D 13.9 µM | PC-3 23.2 µM | SF-268 24.4 µM | SR 36.8 µM | EKVX 15.2 µM | A549 74.6 µM | NCI-H522 17 µM | NCI-H23 45.7 µM | BT-549 21.5 µM

COc1ccc(-c2c3ccccc3c(-c3ccc(OCCBr)cc3)c3ccccc23)cc1
inactive: SN12C > 100 µM | OVCAR-4 > 100 µM | SK-MEL-2 > 100 µM | OVCAR-8 > 100 µM | Malme-3M > 100 µM | MDA-MB-231 > 100 µM | HCT-116 > 100 µM | SK-MEL-5 > 100 µM | T47D > 100 µM | PC-3 > 100 µM | SF-268 > 100 µM | SR > 100 µM | NCI-H460 > 100 µM | EKVX > 100 µM | A549 > 100 µM | NCI-H522 > 100 µM | NCI-H23 > 100 µM | BT-549 > 100 µM
active: UO-31 0.102 µM

C=C1C(=O)CCC1C(=O)O (centres undefined)
inactive: UO-31 > 100 µM | SN12C > 100 µM | OVCAR-4 > 100 µM | SK-MEL-2 > 100 µM | OVCAR-8 > 100 µM | Malme-3M > 100 µM | MDA-MB-231 > 100 µM | HCT-116 > 100 µM | SK-MEL-5 > 100 µM | T47D > 100 µM | PC-3 > 100 µM | SF-268 > 100 µM | SR > 100 µM | NCI-H460 > 100 µM | EKVX > 100 µM | A549 > 100 µM | NCI-H522 > 100 µM | NCI-H23 > 100 µM | BT-549 > 100 µM

Reference: ChEMBL document CHEMBL1201862, “PubChem BioAssay data set” (2004)
